Reference: patent publication US9765328B2, “Nuclease-resistant DNA analogues” (Arizona Board of Regents on Behalf of Arizona State …, priority 2014, dated 2017)
“Also recorded” adds a separate entry of the source. [FANA-N] = 2'-fluoro-arabino (N: the base); {32P} = 5'-32P radiolabel (phosphate); {FAM} = fluorescein (FAM) label

How the values were obtained:
[1] = Chemical stability assay, alkaline conditions (1 M NaOH); type: physicochemical; conditions: 65° C.
Description: The same protocol was used to monitor alkaline stability.

[2] = Chemical stability assay in pepsin-free simulated gastric fluid (SGF); conditions: SGF pH 1.25, 37° C.
Description: Pepsin-free simulated gastric fluid (SGF) was prepared by autoclaving a solution of NaCl (200 mg) in nanopure water (99 mL) followed by addition of 6N HCl (0.7 mL, pH 1.25). TNA (30 pmol), DNA (45 pmol), and RNA (5 pmol) were added to SGF (20 μL) and incubated for the specified time (up to 72 hours). Following the incubation, the reaction mixture was neutralized by the addition of 1N NaOH and the solutions were stored at −20° C. until the time course was complete. The volume was then reduced to 10 μL, mixed with 10 μL of loading buffer (8 M Urea, 5 mM Tris.HCl, 20 mM EDTA, pH 7.5), and the oligonucleotides were analyzed by denaturing PAGE and imaged.
We compared the chemical stability of the all-TNA strand to DNA and RNA oligonucleotides of identical length and similar sequence. […] For these experiments, pepsin-free simulated gastric fluid (SGF, pH 1.25) and 1 M NaOH were used to maintain parity with previous antisense studies^26. For the acidic regime, the TNA, DNA, and RNA samples were incubated in SGF for 72 hours at 37° C.

SVPE = conditions: literature; cited from earlier work
[3] = tested on: phosphodiesterase I from Crotalus adamanteus venom

For “5′-32P-UCUCUCUCUCUC-3′ (RNA, 5' {32P}, backbone not given here)”, the “time within which the sample is degraded in 1 M NaOH” value [1] was no more than 30 min and the “sample degraded in SGF in the first 12 hours” value ([2]; first 12 hours) was 85%.

In the case of “2′-fluoro-arabino nucleic acid (AAAACCCACACCACCA; all [FANA-N], backbone and methylation of C not given here)”, the “degradation in the presence of SVPE” value (SVPE) is listed as “degrade in minutes” and the “t1/2 in human serum” value is listed as less than 3 h.

In the case of “3′-tttCtCtCtCtt-2′ [size-matched TNA/DNA hybrid]”, the “products of SVPE treatment (FIG. 2)” value [3] was “series of shorter truncated products”.

In the case of “5′-Fam-CCCCCCCCCCCC-3′ (5' {FAM}, sugars by position and backbone not given here) [DNA]”, the “stability against snake venom phosphodiesterase (SVPE)” value [3] was “digested”, the “time after which trace amounts of the sample are still visible in 1 M NaOH” value [1] was 12 h and the “strand stability in simulated gastric fluid after 72 hours (3 days)” value ([2]; 72 hours) was “stable; also recorded: remained intact”.
